Test results taken from the supplement of paper PMC10307832.

Tests used:
Experiment in all cases: relative viability (nuclei count vs DMSO), 5 days (fraction); higher = more cells survive
Daporinad + Vorinostat = compound: O=C(/C=C/c1cccnc1)NCCCCC1CCN(C(=O)c2ccccc2)CC1 [Daporinad] + O=C(CCCCCCC(=O)Nc1ccccc1)NO [Vorinostat] (partner 1 µM)
Summary of the method: (§1)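 For relative viability, nuclei counts in treated wells were divided by those in vehicle wells. Lung cancer cell lines had been pin-tool dosed in 1536-well plates the day after seeding and cultured for 5 days, then fixed and stained in one step (final 0.05% Triton X-100, 1% formaldehyde, 1 ug/ml Hoechst) and imaged at 4×. Doses were one drug alone or a fixed anchor-drug dose plus five library-drug doses (not always all listed) in √10 steps, and values are duplicate-plate medians.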

R406 + Alpelisib = compound: COc1cc(Nc2ncc(F)c(Nc3ccc4c(n3)NC(=O)C(C)(C)O4)n2)cc(OC)c1OC [R406] + Cc1nc(NC(=O)N2CCC[C@H]2C(N)=O)sc1-c1ccnc(C(C)(C)C(F)(F)F)c1 [Alpelisib] (partner 2 µM)
Summary of the method: as §1

R406 + Vorinostat = compound: COc1cc(Nc2ncc(F)c(Nc3ccc4c(n3)NC(=O)C(C)(C)O4)n2)cc(OC)c1OC [R406] + O=C(CCCCCCC(=O)Nc1ccccc1)NO [Vorinostat] (partner 1 µM)
Summary of the method: as §1

R406 + Foretinib = compound: COc1cc(Nc2ncc(F)c(Nc3ccc4c(n3)NC(=O)C(C)(C)O4)n2)cc(OC)c1OC [R406] + COc1cc2c(Oc3ccc(NC(=O)C4(C(=O)Nc5ccc(F)cc5)CC4)cc3F)ccnc2cc1OCCCN1CCOCC1 [Foretinib] (partner 0.25 µM)
Summary of the method: as §1

## UMC-11
Daporinad + Vorinostat; first compound 0.0005 µM
  relative viability: 0.319
Daporinad + Vorinostat; first compound 0.001581 µM
  relative viability: 0.384
Daporinad + Vorinostat; first compound 0.005 µM
  relative viability: 0.426
Daporinad + Vorinostat; first compound 0.01581 µM
  relative viability: 0.413
R406 + Alpelisib; first compound 0.08 µM
  relative viability: 0.969
R406 + Alpelisib; first compound 0.253 µM
  relative viability: 1.06
R406 + Alpelisib; first compound 0.8 µM
  relative viability: 1.15
R406 + Alpelisib; first compound 2.53 µM
  relative viability: 0.89
R406 + Alpelisib; first compound 8 µM
  relative viability: 0.386
R406 + Vorinostat; first compound 0.08 µM
  relative viability: 0.361
R406 + Vorinostat; first compound 0.253 µM
  relative viability: 0.312
R406 + Vorinostat; first compound 0.8 µM
  relative viability: 0.39
R406 + Vorinostat; first compound 2.53 µM
  relative viability: 0.304
R406 + Vorinostat; first compound 8 µM
  relative viability: 0.127
R406 + Foretinib; first compound 0.08 µM
  relative viability: 1.11
R406 + Foretinib; first compound 0.253 µM
  relative viability: 1.09
R406 + Foretinib; first compound 0.8 µM
  relative viability: 0.987
R406 + Foretinib; first compound 2.53 µM
  relative viability: 0.789
R406 + Foretinib; first compound 8 µM
  relative viability: 0.499
